# In patent publication US11850233B2, “Reduced adaptive microbial resistance treatment for flesh eating disease (necrotizing fasciitis)” (priority 2019, dated 2023):
# “Also recorded” adds a separate entry of the source. Counter-ions that a name gives are not always drawn. Like-named read-outs stand apart in the source and are kept apart here.
# Tests used:
# [1] = known value of the standard, prior art; cited from earlier work
# E. coli (BL21) bacteria [2] = assay: In vitro inhibition of E. coli (BL21) growth on LB agar plates, dark or irradiated; format: cell-based
# Excerpt: E. coli (BL21) bacteria was used as a model prokaryote to determine the efficacy of the inventive treatment composition to kill bacteria. The effect of inventive composition as well as each individual component of the composition were all tested to determine the effect each on the growth of E. coli bacteria. The procedure described in Herschmann, R. J. et al (2019) “Effect of toxic metal ions on photosensitized singlet oxygen generation for photodegradation of polyaromatic hydrocarbon derivatives and inactivation of Escherichia coli” Photochemistry and Photobiology 86, 890-894, was followed. The bacterial cultures were grown in an incubator in Luria-Broth (LB)—Lennox formulation at 28° C. with shaking at 250 rpm. Once the cells reached the beginning of their exponential growth phase (A600=0.2), one milliliter aliquots were removed and centrifuged. The resulting pellets were washed once with sterile water and then resuspended in 500.0 μL of sterile water. The resuspended bacteria were mixed with 200.0 μL of stock solutions of the components or the multifunctional was selected for testing at 0.3 ppm for all components of the composition. The experimental samples were irradiated in a Rayonet photoreactor for 10 minutes or covered and kept in the dark for 10 minutes. Controls were prepared using 200.0 μL of sterile water were also prepared with one control being irradiated and the other control being kept in the dark. All samples were then briefly vortexed to thoroughly mix samples, and 20.0 μL aliquots of each sample were evenly spread using standard techniques over individual LB agar petri dishes. The plates were inverted and incubated at 28° C. for 48 hours. Results are reported as observed effects of the composition and each component of the composition on the inhibition of the growth of E. coli on the plates.
# [3] = system: MCF-7 breast cancer cells; assay: MTS assay of MCF-7 breast cancer cell proliferation, dark or irradiated; format: cell-based; conditions: aerobic, 0.3 ppm, after 48 hours
# Experimental: For breast cancer cells experiment, a stored sample was taken and incubated for 3 to 5 minutes until room temperature. 5 mL of supplemented medium was placed in a 15 mL centrifuge tube. The contents in the cryotube were transferred into the 15 mL centrifuge tube containing the 5 mL medium. This mixture was centrifuged for 5 minutes at 1000 rpm. The supernatant was removed, and 3 mL of the medium was added to the cells and mixed thoroughly. From this mixture, 1 mL was placed into three separate culture flasks with 11 mL of medium each. These flasks were placed in a humidified atmosphere of 32° C. and 5% CO2. After incubation, cells were rinsed with PBS and aspirated. Cells were washed with trypsin, covered and placed in the incubator for five minutes. Solutions were then mixed with 4 mL of medium and subsequently transferred into a 15 mL centrifuge tube to be centrifuged for 5 minutes at 1000 rpm. The supernatant was then aspirated, and cells were re-suspended in 3-10 mL of medium. From here, 1 mL aliquots of this mixture were placed with 11 mL of medium in a new flask. Lastly, these flasks were placed in humidified atmosphere of 32° C. and 5% CO2. An aliquot of the stock solution (i.e. 9.5 mL) was removed from the stock culture and combined with an appropriate amount of regular medium (i.e. 220.5 mL). After proper mixing the stock with fresh media, 3 mL of the mixture were placed in each of the wells in a 6-well plate. Using the manufacturer's protocol, a MTS assay was performed to assess cell proliferation and toxicity of the multifunctional treatment composition. The concentrations of inventive treatment composition and its individual components were 0.3 ppm, until adjusted. The proliferation(s) of cells were compared to a control of cells alone. The growth the control was standardized as 100% growth and the cell proliferation in the presence of the treatment composition was observed and reported on the bases of percent when compared to the control. Similar procedure was followed for light experiment where samples were irradiated in a Rayonet photoreactor for 10 minutes.
# E. coli (BL21) bacteria [4] = conditions: cited from earlier work
# [5] = Rate of DHN photooxidation under visible light irradiation (absorption at 300 nm); format: physicochemical; conditions: Zinc (II) 0.000 ppm, TMPyP 3.67×10^−7 M, DHN 1.2×10^−4 M, aerobic aqueous
# Experimental: Quartz cuvettes with 1 cm path-length and 3.0 mL volume were used for all measurements.
# For singlet oxygenation experiment, a 3.0 mL solution of DHN (1.2×10^−4 M) and TMPyP (3.67×10^−7 M) was prepared by mixing 36 μL of 1×10^−2 M of DHN standard solution and 1.10 μL of 1×10^−3 M of TMPyP standard solution with ultrapure water at room temperature in an open atmosphere. Singlet oxygenation of sample was conducted in a Rayonet photoreactor for approximately 10 min at 28° C. and the photooxidation of DHN was monitored by recording a decrease in UV-Vis absorption of DHN at 300 nm for 10 min in 2 min intervals.
# [6] = dark, aerobic, 0.3 ppm (Example 1 composition: Zn(II) 0.15 ppm + TMPyP 0.15 ppm), 10 minutes, plates after 48 hours
# [7] = visible light irradiation 10 minutes, aerobic, 0.3 ppm (composition: Zn(II) 0.15 ppm + TMPyP 0.15 ppm), plates after 48 hours
compound,measurement,setting,value
CN(C)c1ccc2nc3ccc(=[N+](C)C)cc-3sc2c1 [methylene blue],singlet oxygen quantum yield (ϕΔ),[1],0.52
[Fe+2] [Iron(II)],inhibition of growth of E. coli,E. coli (BL21) bacteria [2]; [6],zero inhibition
same,inhibition of growth of E. coli,E. coli (BL21) bacteria [2]; [7],zero inhibition
[Co+2] [cobalt (II)],inhibition of growth of E. coli,E. coli (BL21) bacteria [2],zero inhibition
"[Zn+2] [Zn(II) ions, zinc (II) sulfate]",inhibition of growth of E. coli,E. coli (BL21) bacteria [2],essentially no noticeable inhibition; also recorded: almost no inhibition
same,inhibition of growth of MCF-7 breast cancer cells,[3]; dark,no inhibition effect
same,inhibition of growth of MCF-7 breast cancer cells,[3]; visible light irradiation,little or no inhibition effect
[Mn+2] [manganese(II)],inhibition of growth of E. coli,E. coli (BL21) bacteria [2]; [6],zero inhibition
same,inhibition of growth of E. coli,E. coli (BL21) bacteria [2]; [7],zero inhibition
"C[n+]1ccc(-c2c3nc(c(-c4cc[n+](C)cc4)c4ccc([nH]4)c(-c4cc[n+](C)cc4)c4nc(c(-c5cc[n+](C)cc5)c5ccc2[nH]5)C=C4)C=C3)cc1.[Cl-].[Cl-].[Cl-].[Cl-] [TMPyP, meso-tetra(N-methyl-4-pyridyl) porphyrin tetrachloride]",E. coli growth inhibition reported by others,"E. coli (BL21) bacteria [4]; light, aerobic conditions, Khurana et al 2019",inhibits E. coli growth
same,inhibition of growth of E. coli bacteria,E. coli (BL21) bacteria [2],100%
same,"Rate Constant, k of DHN photooxidation",[5],0.0001601 s⁻¹
same,inhibition of growth of MCF-7 breast cancer cells,[3]; dark,almost no inhibition
same,inhibition of growth of MCF-7 breast cancer cells,[3]; visible light irradiation,nearly complete inhibition
"CC1(C)S[C@@H]2[C@H](NC(=O)[C@H](N)c3ccccc3)C(=O)N2[C@H]1C(=O)O [ampicillin, Ampicillin]",inhibition of growth of E. coli,E. coli (BL21) bacteria [2]; [6],Almost no inhibition
"O=C(N[C@H](CO)[C@H](O)c1ccc([N+](=O)[O-])cc1)C(Cl)Cl [chloramphenicol, Chloramphenicol]",inhibition of growth of E. coli,E. coli (BL21) bacteria [2]; [6],Almost no inhibition
meso-tetrakis(N-methyl-4-pyridyl) porphyrin with Zn metal stably bound into the core of porphyrin [ZnTMPyP],E. coli killing / growth inhibition reported earlier,"E. coli (BL21) bacteria [4]; dark conditions, tests by others or PCT/US2018/024338",not effective
same,inhibition of growth of E. coli,E. coli (BL21) bacteria [2]; [6],almost no inhibition
same,inhibition of growth of E. coli,E. coli (BL21) bacteria [2]; [7],inhibition of growth
